Laboratory results as given in US20060134213A1 (priority 2004, published 2006).

Experiment: Clinical single-dose crossover study: relative bioavailability and dose proportionality from plasma ramipril and ramiprilat, tablets vs ALTACE capsules
Type: in vivo, human
[1] = doses increased from 2.5 to 20 mg

increase of AUC0-24 with dose (geometric means) [1]: proportional
increase of Cmax with dose (geometric means) [1]: more than proportional increase
increase of AUC0-t and AUC0-48 with dose (geometric means) (ramipril doses 2.5 to 20 mg): less than proportional increase
SMILES: C[C@H](N[C@@H](CCc1ccccc1)C(=O)O)C(=O)N1[C@H](C(=O)O)C[C@@H]2CCC[C@@H]21 [ramiprilat]
